The Deep4Chem optical property database
Each block holds one molecule with its values, some of them ahead of it.

Assay: photoluminescence quantum yield (fraction); solvent given as SMILES

SMILES: CC1(C)C(/C=C/C2=C(Oc3ccc(CCN=C=S)cc3)C(=C/C=C3/N(CCCS(=O)(=O)[O-])c4ccccc4C3(C)C)/CCC2)=[N+](CCCS(=O)(=O)[O-])c2ccccc21
photoluminescence quantum yield (in CO): 0.07

SMILES: FC(F)(F)c1ccc(-c2nnc(-c3cc(-c4nnc(-c5ccc(C(F)(F)F)cc5)o4)c(-n4c5ccccc5c5ccccc54)cc3-n3c4ccccc4c4ccccc43)o2)cc1
photoluminescence quantum yield (in Cc1ccccc1): 0.095
photoluminescence quantum yield (in O=P(c1ccccc1)(c1ccccc1)c1ccccc1Oc1ccccc1P(=O)(c1ccccc1)c1ccccc1): 0.698

SMILES: CCC1=C(C)C2=Cc3c4ccccc4c4n3[B-](c3ccc(OC)cc3)(Oc3ccccc3-4)[N+]2=C1C (configuration not stated)
photoluminescence quantum yield (in CC#N): 0.67
photoluminescence quantum yield (in CCCCCC): 0.71
photoluminescence quantum yield (in Cc1ccccc1): 0.68
photoluminescence quantum yield (in ClCCl): 0.7

SMILES: Clc1ncc(-c2c3ccccc3c(-c3cnc(Cl)nc3)c3ccccc23)cn1
photoluminescence quantum yield (in CCO): 0.22
photoluminescence quantum yield (in ClCCl): 0.78

SMILES: CCn1c2ccccc2c2cc(/C=C/c3cc(/C=C/c4ccc5c(c4)c4ccccc4n5CC)ncn3)ccc21
photoluminescence quantum yield (in C1CCOC1): 0.25
photoluminescence quantum yield (in CCOC(C)=O): 0.25
photoluminescence quantum yield (in CN(C)C=O): 0.42
photoluminescence quantum yield (in Cc1ccccc1): 0.19
photoluminescence quantum yield (in ClCCl): 0.29

SMILES: C(=C\c1nc2ccccc2[nH]1)/c1ccc(-c2nc3c4cccnc4c4ncccc4c3[nH]2)cc1
photoluminescence quantum yield (in C1CCOC1): 0.11
photoluminescence quantum yield (in CC#N): 0.15
photoluminescence quantum yield (in CO): 0.09
photoluminescence quantum yield (in ClCCl): 0.07

SMILES: N#Cc1ccccc1N1c2ccccc2C(c2ccccc2)(c2ccccc2)c2ccccc21
photoluminescence quantum yield (in Cc1ccccc1): 0.33

SMILES: CC1(C)[C@@H]2[C@@H]1[C@]1(c3ccccc3)N=NC2(c2ccccc2)C2C3C=CC(C3)C21 (some centres not stated)
photoluminescence quantum yield (in CC#N): 0.08

SMILES: COc1cc2c(cc1-c1ccsc1)Cc1c3c(c4c(c1-2)-c1cc(OC)c(-c2ccsc2)cc1C4)C(=O)N(CCC(C)C)C3=O
photoluminescence quantum yield (in C1CCOC1): 0.55

SMILES: CC(C)c1cccc(C(C)C)c1N1C(=O)c2cc(Cl)c3c4c(Cl)cc5c6c(cc(Cl)c(c7c(Cl)cc(c2c37)C1=O)c64)C(=O)N(c1c(C(C)C)cccc1C(C)C)C5=O
photoluminescence quantum yield (in Cc1ccccc1): 0.95

SMILES: COc1cc2c(cc1/C=C/C1=CC(=C(C#N)C#N)CC(C)(C)C1)c1ccccc1n2C
photoluminescence quantum yield (in C1CCOC1): 0.013
photoluminescence quantum yield (in CC#N): 0.031
photoluminescence quantum yield (in CCO): 0.021
photoluminescence quantum yield (in CCOC(C)=O): 0.009
photoluminescence quantum yield (in CN(C)C=O): 0.038
photoluminescence quantum yield (in CS(C)=O): 0.059
photoluminescence quantum yield (in Cc1ccccc1): 0.007
photoluminescence quantum yield (in ClC(Cl)Cl): 0.018
photoluminescence quantum yield (in ClCCl): 0.022

SMILES: CCOC(=O)/C=C/C1=[N+]2C(=C(c3c(C)cc(C)cc3C)c3ccc(/C=C/C(=O)OCC)n3[B-]2(F)F)C=C1
photoluminescence quantum yield (in ClCCl): 0.98

SMILES: COc1cc(/C=C/c2ccncc2)c(OC)cc1C=O
photoluminescence quantum yield (in C1CCOC1): 0.11
photoluminescence quantum yield (in CC#N): 0.17
photoluminescence quantum yield (in CN(C)C=O): 0.15
photoluminescence quantum yield (in Cc1ccccc1): 0.09
photoluminescence quantum yield (in ClCCl): 0.26

SMILES: CN(CC(O)c1cccc(O)c1)c1ccc([N+](=O)[O-])c(C2CC(c3cccc4ccccc34)=NN2c2ccccc2)c1 (configuration not stated)
photoluminescence quantum yield (in C1CCCCC1): 0.16
photoluminescence quantum yield (in C1CCOC1): 0.27
photoluminescence quantum yield (in C1COCCO1): 0.5
photoluminescence quantum yield (in CC#N): 0.25
photoluminescence quantum yield (in CC(C)O): 0.17
photoluminescence quantum yield (in CCOC(C)=O): 0.25
photoluminescence quantum yield (in CCOCC): 0.23
photoluminescence quantum yield (in CO): 0.19
photoluminescence quantum yield (in Cc1ccccc1): 0.18
photoluminescence quantum yield (in ClC(Cl)Cl): 0.22
photoluminescence quantum yield (in O): 0.16

SMILES: CCCCCCC1(CCCCCC)c2cc(-c3nc(-c4ccc5c(c4)C(CCCCCC)(CCCCCC)c4cc(-n6c7ccc(C(C)(C)C)cc7c7cc(C(C)(C)C)ccc76)ccc4-5)nc(-c4ccc5c(c4)C(CCCCCC)(CCCCCC)c4cc(-n6c7ccc(C(C)(C)C)cc7c7cc(C(C)(C)C)ccc76)ccc4-5)n3)ccc2-c2ccc(-n3c4ccc(C(C)(C)C)cc4c4cc(C(C)(C)C)ccc43)cc21
photoluminescence quantum yield (in C1CCOC1): 0.56
photoluminescence quantum yield (in CCCCCC): 1
photoluminescence quantum yield (in Cc1ccccc1): 0.99
photoluminescence quantum yield (in ClCCl): 0.56

SMILES: COc1ccc(C2=CC(c3ccccc3)=[N+]3C2=Nc2c(-c4ccc(OC)cc4)cc(-c4ccccc4)n2[B-]3(F)F)cc1
photoluminescence quantum yield (in Cc1ccccc1): 0.24
photoluminescence quantum yield (in ClC(Cl)Cl): 0.23

SMILES: CC1=[N+]2C(=Cc3c4c(cn3[B-]2(F)F)-c2nc-4c(-c3ccccc3)c3ccc([nH]3)c(-c3ccccc3)c3nc(c(-c4ccccc4)c4ccc([nH]4)c2-c2ccccc2)C=C3)C(C)C1 (configuration not stated)
photoluminescence quantum yield (in ClCCl): 0.04

SMILES: COc1nnc(Cl)nn1
photoluminescence quantum yield (in ClCCl): 0.38
photoluminescence quantum yield (in OCC(F)(F)F): 0.26

SMILES: CN(C)c1ccc2c(C(=O)NCc3ccccc3)cc(C(=O)[O-])nc2c1
photoluminescence quantum yield (in CCO): 0.013

SMILES: CN(C)c1ccc(C2=Nc3sc4cc(Cl)ccc4[n+]3[B-](F)(F)O2)cc1
photoluminescence quantum yield (in C1CCOC1): 0.74
photoluminescence quantum yield (in CC#N): 0.12
photoluminescence quantum yield (in CC(C)=O): 0.21
photoluminescence quantum yield (in Cc1ccccc1): 0.91
photoluminescence quantum yield (in ClCCl): 0.78

Other lines, results leading:

photoluminescence quantum yield (in C1COCCO1): 0.4
photoluminescence quantum yield (in CC#N): 0.32
photoluminescence quantum yield (in CCCCOCCCC): 0.37
photoluminescence quantum yield (in CCOC(C)=O): 0.33
SMILES: COc1nc(Cl)nc(Nc2ccc3c4cccc5cccc(c6cccc2c63)c54)n1

photoluminescence quantum yield (in C1CCOC1): 0.74
SMILES: COC(=O)c1ccc(/C=C/C(F)(F)F)c(N)c1

photoluminescence quantum yield (in c1cc(-c2cccc(-n3c4ccccc4c4ccccc43)c2)cc(-n2c3ccccc3c3ccccc32)c1): 0.94
SMILES: c1ccc(-c2nc(-c3ccccc3)nc(-c3ccc(-c4ccc5c(c4)C4(c6ccccc6-c6ccccc64)c4cc(-c6ccc(-c7nc(-c8ccccc8)nc(-c8ccccc8)n7)cc6)ccc4N5c4ccccc4)cc3)n2)cc1

photoluminescence quantum yield (in C1CCOC1): 0.24
photoluminescence quantum yield (in CC#N): 0.01
photoluminescence quantum yield (in CCO): 0.01
photoluminescence quantum yield (in CCOC(C)=O): 0.35
photoluminescence quantum yield (in CN(C)C=O): 0.02
photoluminescence quantum yield (in ClCCl): 0.22
photoluminescence quantum yield (in c1ccccc1): 0.9
SMILES: O=C(c1ccc(N(c2ccccc2)c2ccccc2)cc1)[C@H]1[C@H](c2cccs2)C[C@](O)(c2ccccn2)C[C@]1(O)c1ccccn1

photoluminescence quantum yield (in C1COCCO1): 0.14
photoluminescence quantum yield (in CC#N): 0.17
photoluminescence quantum yield (in CC(C)O): 0.2
photoluminescence quantum yield (in CCCCO): 0.2
photoluminescence quantum yield (in CCO): 0.18
photoluminescence quantum yield (in CCOC(C)=O): 0.14
photoluminescence quantum yield (in CN(C)C=O): 0.14
photoluminescence quantum yield (in CO): 0.16
photoluminescence quantum yield (in CS(C)=O): 0.25
SMILES: O=S(=O)([O-])c1ccc(O)c2ccccc12

photoluminescence quantum yield (in CCO): 0.4
photoluminescence quantum yield (in ClCCl): 0.51
SMILES: c1ccc(-c2c3ccccc3c(-c3cncnc3)c3ccccc23)cc1

photoluminescence quantum yield (in ClCCl): 0.0031
SMILES: CC[C@H](C)[C@H](Nc1c(C(C)=O)c(=O)oc2cc(N(C)C)ccc12)C(=O)O

photoluminescence quantum yield (in ClC(Cl)Cl): 0.32
SMILES: CCn1c2ccccc2sc2c(C#N)c3[nH]c4ccccc4sc3c(C#N)c21

photoluminescence quantum yield (in ClCCl): 0.07
SMILES: CC(C)(C)NC(=O)c1ccc(C(=O)NC(C)(C)C)c2c1c1c3ccc(Cl)cc3c3cc(Cl)ccc3c1c1c3ccc(Cl)cc3c3cc(Cl)ccc3c21

photoluminescence quantum yield (in CC#N): 0.156
SMILES: COc1ccc(-n2nc(C#N)c(N3CCC(N4CCCCC4)CC3)n2)cc1

photoluminescence quantum yield (in ClCCl): 0.71
SMILES: CC(C)(C)c1ccc(N(c2ccccc2)c2ccc3ccc4c(N(c5ccccc5)c5ccc(C(C)(C)C)cc5)ccc5ccc2c3c54)cc1

photoluminescence quantum yield (in ClCCl): 0.15
SMILES: CCCCCCC1(CCCCCC)c2cc(-c3ccc(-c4ccc(-c5ccc(-c6ccc7c(c6)C(CCCCCC)(CCCCCC)c6cc(-n8c9ccc(-n%10c%11ccccc%11c%11ccccc%11%10)cc9c9cc(-n%10c%11ccccc%11c%11ccccc%11%10)ccc98)ccc6-7)s5)c5nsnc45)s3)ccc2-c2ccc(-n3c4ccc(-n5c6ccccc6c6ccccc65)cc4c4cc(-n5c6ccccc6c6ccccc65)ccc43)cc21

photoluminescence quantum yield (in C1CCCCC1): 0.91
SMILES: CC(C)(C)C#Cc1ccc2c3cccc4cccc(c5cccc1c52)c43

photoluminescence quantum yield (in CO): 0.59
SMILES: CC1=CC(/C=C/c2ccc(OCCCN=[N+]=[N-])cc2)=[N+]2C1=C(c1ccc(N(C)C)cc1)c1c(C)cc(C)n1[B-]2(F)F

photoluminescence quantum yield (in CN(C)C=O): 0.105
photoluminescence quantum yield (in O): 0.783
SMILES: CC[N+]1(CC)CN2C(C)=CC(C)=C(C(=O)[O-])C2=N1

photoluminescence quantum yield (in CCCCCC): 0.96
photoluminescence quantum yield (in CO): 1
photoluminescence quantum yield (in ClCCl): 0.89
SMILES: CC1=C2C=CC(C)=[N+]2[B-](F)(F)n2cccc21

photoluminescence quantum yield (in CO): 0.002
SMILES: N#Cc1c(-n2nnc3ccccc32)n([C@H]2C[C@H](O)[C@@H](CO)O2)c2ncnc(N)c12

photoluminescence quantum yield (in CC#N): 0.0066
SMILES: CN(C)C1=Nc2cccc3cccc1c23

photoluminescence quantum yield (in CC#N): 0.017
SMILES: N#CC(/N=C/c1ccccc1O)=C(C#N)/N=C/c1ccccc1O

photoluminescence quantum yield (in C1CCOC1): 0.62
SMILES: Cc1ccc(/C=C/C(F)(F)F)c(N)c1

photoluminescence quantum yield (in C1CCCCC1): 0.12
SMILES: c1ccc(-c2cc3cccc4cc(-c5ccccc5)c5cc(-c6cc7[b-]8c(c6)c(-c6ccccc6)cc6cccc(cc7-c7ccccc7)[n+]86)cc2[b-]5[n+]34)cc1

photoluminescence quantum yield (in ClCCl): 0.3
SMILES: CC(C)c1cccc(C(C)C)c1N1C(=O)c2ccc3c(-c4ccc(C(=O)O)cc4)c4c5ccc6c7c(ccc(c(-c8ccc(C(=O)O)cc8)c4c4ccc(c2c34)C1=O)c75)C(=O)N(c1c(C(C)C)cccc1C(C)C)C6=O

photoluminescence quantum yield (in ClCCl): 0.123
SMILES: Cc1ccc(-c2c3nc(c(-c4ccc(C)cc4)c4ccc([nH]4)c(-c4ccc(OC(=O)C(C)c5ccccc5)cc4)c4nc(c(-c5ccc(C)cc5)c5ccc2[nH]5)C=C4)C=C3)cc1 (configuration not stated)

photoluminescence quantum yield (in ClC(Cl)Cl): 0.542
SMILES: F[B-]1(F)OC(c2ccc(N3CCCC3)cc2)=Cc2cccc[n+]21

photoluminescence quantum yield (in CCCCCC): 0.42
SMILES: CC(C)[Si](C#Cc1c2nsnc2c(C#C[Si](C(C)C)(C(C)C)C(C)C)c2nc3c(ccc4ccccc43)nc12)(C(C)C)C(C)C

photoluminescence quantum yield (in C1CCOC1): 0.01
SMILES: CN(C)c1ccc(C2=C(c3ccccc3)c3sc4ccccc4[n+]3[B-](F)(F)O2)cc1

photoluminescence quantum yield (in CC1CCCCC1): 0.0006
SMILES: c12c3c4c5c1c1c6c7c2c2c8c3c3c9c4c4c%10c5c5c1c1c6c6c%11c%12c%13c%14c%15c%16c%17c%14c%14c%18c%13c%11c1c1c5c%10c5c(c%14c%10c%17c%11c%13c%16c%14c%16c%15c%12c%12c%16c(c2c7c%126)c2c8c3c(c%13c%142)c2c9c4c5c%10c%112)c%181

photoluminescence quantum yield (in ClCCl): 0.28
SMILES: Cc1cc(C)c(-c2cc(-c3c(C)cc(C)cc3C)c3ccc4c(-c5c(C)cc(C)cc5C)cc(-c5c(C)cc(C)cc5C)c5ccc2c3c54)c(C)c1
